We go through 30 molecules from ChEMBL document CHEMBL1221328, “Relationships between structures of hydroxyflavones and their antioxidative effects” (Bioorg Med Chem Lett, 2010).

The structures appear in SMILES notation.

The experiment is described as follows: Antioxidant activity assessed as […] radical scavenging activity. Details: concentration or dose not given beside the values. The format is functional.
Consider `O=c1c(O)c(-c2ccc(O)c(O)c2)oc2cc(O)cc(O)c12`, for which the Activity was found to be 87.8%.
Regarding `O=c1c(O)c(-c2ccccc2O)oc2cc(O)cc(O)c12`, the Activity was 86.5%.
For `O=c1cc(-c2ccccc2O)oc2c(O)c(O)ccc12`, the Activity stood at 79.9%.
With `O=c1c(O)c(-c2ccc(O)c(O)c2)oc2cc(O)ccc12`, the Activity is 85.2%.
As for `O=c1cc(-c2ccc(O)cc2)oc2cc(O)c(O)c(O)c12`, the Activity was 69.9%.
The same measure for `O=c1cc(-c2ccc(O)c(O)c2)oc2c(O)c(O)ccc12`: 87.4%; for `O=c1c(O)c(-c2cc(O)c(O)cc2O)oc2ccc(O)cc12`: 85.6%.
For the molecule `O=c1cc(-c2cc(O)cc(O)c2)oc2ccccc12`, the Activity came out at 61.8%.
The same measure for `O=c1c(O)c(-c2ccccc2O)oc2ccc(O)cc12`: 86.8%; for `O=c1c(O)c(-c2ccc(O)c(O)c2)oc2ccc(O)cc12`: 86.7%; for `O=c1cc(-c2cccc(O)c2)oc2c(O)c(O)ccc12`: 87.1%.
The figure for `O=c1c(O)c(-c2ccc(O)c(O)c2)oc2ccccc12` is 85.7%.
The figure for `O=c1c(O)c(-c2ccccc2)oc2cccc(O)c12` is 58.3%; for `O=c1c(O)c(-c2ccc(O)cc2)oc2cc(O)cc(O)c12` it is 77.2%.
`O=c1cc(-c2ccc(O)c(O)c2)oc2ccc(O)cc12`: the Activity was 83.9%.
The same measure for `O=c1cc(-c2ccc(O)c(O)c2)oc2cc(O)ccc12`: 84.9%; for `O=c1cc(-c2cccc(O)c2O)oc2ccc(O)cc12`: 87.1%.
In the case of `O=c1c(O)c(-c2ccccc2O)oc2ccccc12`, the Activity amounted to 69.3%.
The figure for `O=c1cc(-c2ccccc2)oc2c(O)c(O)cc(O)c12` is 58.8%; for `O=c1c(O)c(-c2ccc(O)c(O)c2)oc2c(O)c(O)cc(O)c12` it is 85.4%.
The figure for `O=c1c(O)c(-c2ccccc2)oc2cc(O)cc(O)c12` is 52.5%.
Regarding `O=c1c(O)c(-c2ccc(O)cc2O)oc2cc(O)cc(O)c12`, the Activity was 81.5%.
For the molecule `O=c1c(O)c(-c2cccc(O)c2O)oc2ccc(O)cc12`, the Activity worked out at 86.6%.
The figure for `O=c1cc(-c2cc(O)c(O)c(O)c2)oc2cc(O)ccc12` is 88.8%; for `O=c1c(O)c(-c2ccc(O)cc2O)oc2ccc(O)cc12` it is 86.3%; for `O=c1cc(-c2cc(O)c(O)c(O)c2)oc2cc(O)cc(O)c12` it is 88.1%.
The figure for `O=c1c(O)c(-c2cc(O)c(O)c(O)c2)oc2cc(O)cc(O)c12` is 79.5%; for `O=c1cc(-c2ccc(O)c(O)c2)oc2cc(O)c(O)cc12` it is 86.4%.
The same measure for `O=c1c(O)c(-c2cc(O)c(O)c(O)c2)oc2cc(O)ccc12`: 79.9%.
On to `O=c1c(O)c(-c2ccccc2O)oc2c(O)c(O)ccc12`, for which the Activity amounted to 83.1%.
